In patent US20110171193A1, “COMPOSITIONS AND METHODS FOR TREATING PULMONARY HYPERTENSION” (THE BOARD OF TRUSTEES OF THE UNIVERSITY OF ILLINOIS, priority 2008, published 2011):

Columns and labels:
Cav1−/− mice [1] = assay: RVSP in Cav1−/− mice with PH; type: in vivo, mouse; settings: 8 month old Cav1−/− mice; 1 mg/ml in drinking water for 5 wk
Procedure: RVSP was determined as follows. Briefly, following anesthesia, mice were prepared for catheterization. A 1.4 F pressure transducer catheter (Millar Instruments) was carefully inserted via the right external jugular vein into the right ventricle to obtain measurements of RVSP using the Acknowledge software (Biopac Systems, Inc.). To determine lung vascular resistance, mice were anesthetized and prepared for perfusion. Pulmonary arterial (Ppa) and venous (Pv) pressures were monitored continuously through the pulmonary arterial and left atrial cannula, which were connected to a pressure transducer. […] Ppa was measured at steady-state and was plotted against the flow, which was measured by weighing the effluent collected over a one-minute period. […]
To determine whether pharmacological inhibition of eNOS in Cav1^−/− mice can reverse PH, we administered N-Nitro-L-Arginine Methyl Ester (L-NAME), a NOS inhibitor, to Cav1^−/− mice following onset of PH. […] Data are expressed as mean±SD (n=5-7). *, P=0.023 WT versus Cav1^−/−;**, P=0.015 Cav-L versus Cav1^−/−; #, P>0.5 Cav-D versus Cav1^−/−. […] Data are expressed as mean±SD (n=5-7). *, P=0.002 WT versus Cav1^−/−; **, P=0.013 Cav-L versus Cav1^−/−; #, P=0.8 Cav-D versus Cav1^−/−.
Hemodynamic Measurements. RVSP was determined with a 1.4 F pressure transducer catheter (Millar Instruments) and the Acknowledge software (Biopac Systems, Inc.). […]

Cav1−/− mice [2] = assay: Lung histology and muscularized distal pulmonary arteries in Cav1−/− mice; type: in vivo, mouse; settings: 8 month old Cav1−/− mice; 1 mg/ml in drinking water for 5 wk
Procedure: Following PBS perfusion, the lung tissues were fixed for 5 min by instillation of 10% PBS-buffered formalin through trachea catheterization at a transpulmonary pressure of 15 cm H2O. After tracheal ligation, harvested lungs were fixed with 10% PBS-buffered formalin overnight at […] with agitation. After paraffin processing, the tissues were cut into semithin 4 to […] thick, and stained with either H & E for histological analysis or an antibody against nitrotyrosine (Upstate Biotechnology) for immunohistochemistry. Immunostaining was developed with a Vectastain ABC kit (Vector Laboratories). Histology and Imaging. Lung tissues were fixed and processed for H & E staining and immunofluorescent staining. for 5 min by instillation of 10% PBS-buffered formalin through trachea catheterization at a transpulmonary pressure of 15 cm H2O, and then overnight at 4° C. with agitation. After paraffin processing, the tissues were cut into semi-thin 4 to […] thick, and stained with H & E for histological analysis. For immunofluorescent staining, antigen retrieval was performed by incubating the slides in 10 mM sodium citrate (pH 6.0) at 95° C. for 10 min. […] The anti-a-SMA-positive pulmonary arterial vessels per field (200×) were counted based on the diameter (<40 μm versus>40 μm). Twenty fields per section were randomly identified and counted. […]

human PKG-1a = assay: Myc-tagged PKG-1a tyrosine mutants treated with peroxynitrite: kinase assay and tyrosine nitration; type: biochemical; settings: in contrast to wildtype PKG-1
Procedure: Identification of Nitrated Tyrosine Residues of PKG-1a. Tyrosine residue was mutated to Phenylalanine by site-directed mutagenesis following manufacture's instruction (Stratagene). Myc-tagged wild-type and mutant PKG-1a were overexpressed in human lung microvascular endothelial cells and cell lysates were then immunoprecipitated with anti-Myc for 4 hr at RT. […] Following 14 min incubation in 50 mM K2HPO4 buffer at RT, kinase activity was then measured as described above.
(§1) To address the role of peroxynitrite in the mechanism of the observed impairment of PKG activity, we treated human pulmonary artery smooth muscle cells with 3-morpholinosydnonimine (SIN-1), the superoxide and NO donor that forms peroxynitrite simultaneously (30). […] FIG. 9A relates to dose-dependent impairment of PKG activity by peroxynitrite. Purified […] (Promega) was incubated with peroxynitrite at indicated concentrations for 14 min at RT or with DETA NONOate (NONOate) for 30 min in dark at RT. Kinase activity was then assayed. Data is expressed mean+/−SD (n=3). *, P<0.05 versus control (0 μM). FIG. 9B relates to screening of PKG-1a mutants with in vitro kinase assay. […] PKG activity was expressed as pmoles/min/μg cell lysates. […] Data are expressed as mean±SD (n=3), *, P<0.05 versus either PKG-1a mutant. […]

purified PKG-1 = biological target: T1, purified PKG-1 (Bos taurus, UniProt P00516); assay: In vitro kinase assay of purified PKG-1 after peroxynitrite or DETA NONOate; type: biochemical; settings: peroxynitrite at indicated concentrations, 14 min at RT
T1 construct: purchased Promega
T1 sequence (P00516 1-671): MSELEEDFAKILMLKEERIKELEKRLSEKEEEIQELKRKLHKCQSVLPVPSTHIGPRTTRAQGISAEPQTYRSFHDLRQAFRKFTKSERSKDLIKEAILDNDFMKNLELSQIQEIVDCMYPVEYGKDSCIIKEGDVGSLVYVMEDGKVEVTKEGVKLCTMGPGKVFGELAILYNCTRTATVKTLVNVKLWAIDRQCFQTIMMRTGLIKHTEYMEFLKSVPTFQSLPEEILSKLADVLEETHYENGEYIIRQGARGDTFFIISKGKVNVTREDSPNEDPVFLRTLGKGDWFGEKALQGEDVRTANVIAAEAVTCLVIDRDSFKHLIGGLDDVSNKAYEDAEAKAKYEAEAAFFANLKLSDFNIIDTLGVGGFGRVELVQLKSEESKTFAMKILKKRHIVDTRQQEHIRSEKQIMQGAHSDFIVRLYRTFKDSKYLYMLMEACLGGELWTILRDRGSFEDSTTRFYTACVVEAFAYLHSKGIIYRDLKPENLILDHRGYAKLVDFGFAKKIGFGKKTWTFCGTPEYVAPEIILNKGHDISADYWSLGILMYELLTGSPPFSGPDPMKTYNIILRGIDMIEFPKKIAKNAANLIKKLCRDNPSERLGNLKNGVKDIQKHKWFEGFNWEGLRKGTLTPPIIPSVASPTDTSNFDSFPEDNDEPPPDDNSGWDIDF
Procedure: PKG Kinase Assay. In vitro activity of PKG was determined by measuring the transfer of the [g-^32P] phosphate group of ATP to the specific PKG substrate, BPDEtide (Calbiochem) in the absence or presence of exogenous 2.5 mM cGMP as described in Example 13. PKG activity is expressed as picmoles of ^32P incorporated into PKG substrate per min per microgram protein.
as §1, with “assay. At 48 hr post-transfection, myc-tagged WT and PKG-1a mutants were immunoprecipitated with anti-myc beads and aliquoted for incubation with either peroxynitrite (100 μM) or the same amount of 0.1 N NaOH only (CTL).” for “assay.”

PKG activity following peroxynitrite treatment (human PKG-1a; PKG-1a with mutation of tyrosine residue 345 or 549, peroxynitrite 100 μM) | Tyrosine nitration following peroxynitrite treatment (human PKG-1a; PKG-1 mutants (tyrosine 345 or 549), peroxynitrite 250 μM, 14 min at RT) | SMILES | RVSP (Cav1−/− mice [1]) | Number of muscularized distal pulmonary arteries (Cav1−/− mice [2]) | PKG activity (purified PKG-1)
– | – | COC(=O)[C@H](N)CCCN=C(N)N[N+](=O)[O-] [D-NAME] | no effect | no effect | –
no impairment of PKG activity | diminished tyrosine nitration | O=NOO [peroxynitrite] | – | – | decreased PKG activity in a concentration-dependent manner
